The kinase profiling compilation of Christmann-Franck et al. (2016)

How the values were obtained:
Experiment in all cases: KINOMEscan competition binding
Conditions in all cases: compound 10.0 µM
BMPR1B (human) = BMPR1B (human) (UniProt O00238)
PIK3CG (human) = PIK3CG (human) (UniProt P48736)
MAP2K4 (human) = MAP2K4 (human) (UniProt P45985)
CaMK1 (human) = CaMK1 (human) (UniProt Q14012)
FRK (human) = FRK (human) (UniProt P42685)
CDK19 (human) = CDK19 (human) (UniProt Q9BWU1)
RPS6KA2 KD2 (human) = RPS6KA2 KD2 (human) (UniProt Q15349)
PTK6 (human) = PTK6 (human) (UniProt Q13882)
IKBKB (human) = IKBKB (human) (UniProt O14920)
PIP4K2B (human) = PIP4K2B (human) (UniProt P78356)
MARK4 (human) = MARK4 (human) (UniProt Q96L34)
MELK (human) = MELK (human) (UniProt Q14680)
RIPK4 (human) = RIPK4 (human) (UniProt P57078)
RPS6KA5 KD2 (human) = RPS6KA5 KD2 (human) (UniProt O75582)
PAK6 (human) = PAK6 (human) (UniProt Q9NQU5)
[1] = target: JAK2 JH1 catalytic (human) (UniProt O60674)
STK32B (human) = STK32B (human) (UniProt Q9NY57)
[2] = test system: ABL1 (human), P00519 [H396P]
CLK3 (human) = CLK3 (human) (UniProt P49761)
LATS2 (human) = LATS2 (human) (UniProt Q9NRM7)
LIMK2 (human) = LIMK2 (human) (UniProt P53671)
ROCK2 (human) = ROCK2 (human) (UniProt O75116)
BLK (human) = BLK (human) (UniProt P51451)
PKMYT1 (human) = PKMYT1 (human) (UniProt Q99640)
ABL1 (human) = ABL1 (human) (UniProt P00519)
MST4 (human) = MST4 (human) (UniProt Q9P289)
PAK3 (human) = PAK3 (human) (UniProt O75914)
TAOK3 (human) = TAOK3 (human) (UniProt Q9H2K8)
PRKD3 (human) = PRKD3 (human) (UniProt O94806)
EPHA1 (human) = EPHA1 (human) (UniProt P21709)
SRPK2 (human) = SRPK2 (human) (UniProt P78362)
ROCK1 (human) = ROCK1 (human) (UniProt Q13464)

LIMK2 (human), sequence (P53671 whole entry, looked up): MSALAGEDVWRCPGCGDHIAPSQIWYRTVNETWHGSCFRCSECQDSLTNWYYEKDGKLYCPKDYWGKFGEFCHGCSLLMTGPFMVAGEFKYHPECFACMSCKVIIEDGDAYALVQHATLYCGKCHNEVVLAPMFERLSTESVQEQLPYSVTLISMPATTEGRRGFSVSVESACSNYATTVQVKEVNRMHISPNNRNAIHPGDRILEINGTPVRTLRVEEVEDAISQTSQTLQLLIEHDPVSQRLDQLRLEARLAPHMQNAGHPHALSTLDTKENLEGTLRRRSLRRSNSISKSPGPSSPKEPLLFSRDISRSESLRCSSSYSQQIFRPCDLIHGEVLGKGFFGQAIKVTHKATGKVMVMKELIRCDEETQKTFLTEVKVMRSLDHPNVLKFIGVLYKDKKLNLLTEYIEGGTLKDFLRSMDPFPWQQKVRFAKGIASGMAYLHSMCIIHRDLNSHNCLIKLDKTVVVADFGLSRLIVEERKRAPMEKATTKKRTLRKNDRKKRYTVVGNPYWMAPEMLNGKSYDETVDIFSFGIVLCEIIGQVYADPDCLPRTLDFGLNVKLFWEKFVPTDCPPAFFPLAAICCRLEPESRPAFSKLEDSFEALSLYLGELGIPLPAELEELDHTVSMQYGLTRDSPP
PAK3 (human), sequence (O75914 whole entry, looked up): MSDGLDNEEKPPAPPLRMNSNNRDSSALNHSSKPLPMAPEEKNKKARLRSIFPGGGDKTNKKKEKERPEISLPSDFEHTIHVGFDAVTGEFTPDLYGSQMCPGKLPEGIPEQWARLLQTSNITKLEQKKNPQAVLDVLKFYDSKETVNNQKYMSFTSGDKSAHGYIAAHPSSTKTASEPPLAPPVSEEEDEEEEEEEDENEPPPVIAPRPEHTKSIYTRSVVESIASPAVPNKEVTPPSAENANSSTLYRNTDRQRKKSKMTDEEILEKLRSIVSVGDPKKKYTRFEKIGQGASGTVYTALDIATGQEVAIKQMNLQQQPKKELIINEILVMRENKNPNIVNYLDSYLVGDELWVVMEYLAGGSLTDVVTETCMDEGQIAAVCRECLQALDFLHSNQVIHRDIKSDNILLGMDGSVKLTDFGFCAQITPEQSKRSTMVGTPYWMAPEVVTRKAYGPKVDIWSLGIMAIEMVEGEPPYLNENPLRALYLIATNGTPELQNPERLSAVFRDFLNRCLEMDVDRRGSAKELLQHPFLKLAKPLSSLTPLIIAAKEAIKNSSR
LATS2 (human), sequence (Q9NRM7 whole entry, looked up): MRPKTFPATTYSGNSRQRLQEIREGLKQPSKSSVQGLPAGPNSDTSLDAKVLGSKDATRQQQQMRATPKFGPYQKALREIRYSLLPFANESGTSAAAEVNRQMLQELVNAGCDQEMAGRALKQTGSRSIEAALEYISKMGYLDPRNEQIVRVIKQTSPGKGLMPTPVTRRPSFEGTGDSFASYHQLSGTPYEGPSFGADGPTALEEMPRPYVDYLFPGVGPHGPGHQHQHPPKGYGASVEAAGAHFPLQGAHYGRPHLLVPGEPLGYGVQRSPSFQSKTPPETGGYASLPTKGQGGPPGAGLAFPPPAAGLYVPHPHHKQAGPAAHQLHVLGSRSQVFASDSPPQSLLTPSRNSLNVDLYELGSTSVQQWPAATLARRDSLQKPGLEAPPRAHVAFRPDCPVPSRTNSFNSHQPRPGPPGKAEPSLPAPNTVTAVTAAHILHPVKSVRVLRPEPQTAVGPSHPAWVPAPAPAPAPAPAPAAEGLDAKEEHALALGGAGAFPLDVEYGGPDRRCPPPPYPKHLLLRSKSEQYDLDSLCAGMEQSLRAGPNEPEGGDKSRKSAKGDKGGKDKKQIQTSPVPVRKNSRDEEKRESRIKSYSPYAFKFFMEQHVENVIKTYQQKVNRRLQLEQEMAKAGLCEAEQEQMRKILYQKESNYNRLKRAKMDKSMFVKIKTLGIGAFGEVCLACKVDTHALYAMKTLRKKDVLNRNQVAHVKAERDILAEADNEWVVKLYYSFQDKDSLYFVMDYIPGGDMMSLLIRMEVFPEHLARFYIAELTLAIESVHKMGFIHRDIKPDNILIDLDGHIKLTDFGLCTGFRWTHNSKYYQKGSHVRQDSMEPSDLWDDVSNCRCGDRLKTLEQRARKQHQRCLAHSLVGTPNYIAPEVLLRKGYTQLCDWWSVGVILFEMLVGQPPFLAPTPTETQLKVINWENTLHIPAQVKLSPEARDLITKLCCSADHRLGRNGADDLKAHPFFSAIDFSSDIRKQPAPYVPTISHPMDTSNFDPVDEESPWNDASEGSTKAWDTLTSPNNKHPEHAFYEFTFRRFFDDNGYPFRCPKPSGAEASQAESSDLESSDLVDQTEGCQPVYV
STK32B (human), sequence (Q9NY57 whole entry, looked up): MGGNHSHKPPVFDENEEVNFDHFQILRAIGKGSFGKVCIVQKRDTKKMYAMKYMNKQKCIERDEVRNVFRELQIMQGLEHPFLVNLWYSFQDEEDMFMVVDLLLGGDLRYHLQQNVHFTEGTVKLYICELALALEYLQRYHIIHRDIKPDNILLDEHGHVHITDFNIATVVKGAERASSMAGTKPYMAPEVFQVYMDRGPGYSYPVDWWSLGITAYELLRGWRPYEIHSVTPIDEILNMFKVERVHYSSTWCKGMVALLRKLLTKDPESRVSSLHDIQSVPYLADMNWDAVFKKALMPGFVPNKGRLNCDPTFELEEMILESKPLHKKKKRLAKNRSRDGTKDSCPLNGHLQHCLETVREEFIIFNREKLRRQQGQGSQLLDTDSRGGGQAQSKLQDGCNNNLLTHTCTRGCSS
PIK3CG (human), sequence (P48736 whole entry, looked up): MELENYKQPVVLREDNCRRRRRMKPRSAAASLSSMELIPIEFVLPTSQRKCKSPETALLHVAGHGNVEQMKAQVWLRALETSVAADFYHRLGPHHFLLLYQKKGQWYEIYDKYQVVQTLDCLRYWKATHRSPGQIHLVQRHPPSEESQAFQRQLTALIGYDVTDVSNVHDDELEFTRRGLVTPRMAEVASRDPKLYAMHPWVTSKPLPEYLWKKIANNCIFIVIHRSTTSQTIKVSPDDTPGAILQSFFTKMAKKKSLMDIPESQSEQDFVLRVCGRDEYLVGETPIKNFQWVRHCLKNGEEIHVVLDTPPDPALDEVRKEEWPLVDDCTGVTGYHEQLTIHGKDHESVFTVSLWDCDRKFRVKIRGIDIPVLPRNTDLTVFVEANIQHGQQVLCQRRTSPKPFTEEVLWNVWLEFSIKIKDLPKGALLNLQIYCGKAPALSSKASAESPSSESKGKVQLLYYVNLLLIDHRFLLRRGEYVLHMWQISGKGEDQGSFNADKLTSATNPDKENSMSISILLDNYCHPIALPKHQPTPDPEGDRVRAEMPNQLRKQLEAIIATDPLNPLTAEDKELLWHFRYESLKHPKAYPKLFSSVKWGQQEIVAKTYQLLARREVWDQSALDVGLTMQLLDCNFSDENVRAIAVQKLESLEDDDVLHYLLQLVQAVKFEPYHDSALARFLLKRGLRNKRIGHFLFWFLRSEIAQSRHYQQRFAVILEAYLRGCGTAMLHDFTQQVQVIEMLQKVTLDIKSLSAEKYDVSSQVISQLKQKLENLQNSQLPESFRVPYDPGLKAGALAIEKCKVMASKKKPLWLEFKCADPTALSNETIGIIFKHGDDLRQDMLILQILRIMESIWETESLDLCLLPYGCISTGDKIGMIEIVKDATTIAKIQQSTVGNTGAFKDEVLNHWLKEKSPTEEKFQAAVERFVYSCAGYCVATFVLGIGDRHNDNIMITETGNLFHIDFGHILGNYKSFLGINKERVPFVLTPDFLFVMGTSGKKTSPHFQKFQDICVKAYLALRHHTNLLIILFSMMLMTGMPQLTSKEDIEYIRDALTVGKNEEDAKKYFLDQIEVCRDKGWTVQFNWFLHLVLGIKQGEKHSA
BMPR1B (human), sequence (O00238 whole entry, looked up): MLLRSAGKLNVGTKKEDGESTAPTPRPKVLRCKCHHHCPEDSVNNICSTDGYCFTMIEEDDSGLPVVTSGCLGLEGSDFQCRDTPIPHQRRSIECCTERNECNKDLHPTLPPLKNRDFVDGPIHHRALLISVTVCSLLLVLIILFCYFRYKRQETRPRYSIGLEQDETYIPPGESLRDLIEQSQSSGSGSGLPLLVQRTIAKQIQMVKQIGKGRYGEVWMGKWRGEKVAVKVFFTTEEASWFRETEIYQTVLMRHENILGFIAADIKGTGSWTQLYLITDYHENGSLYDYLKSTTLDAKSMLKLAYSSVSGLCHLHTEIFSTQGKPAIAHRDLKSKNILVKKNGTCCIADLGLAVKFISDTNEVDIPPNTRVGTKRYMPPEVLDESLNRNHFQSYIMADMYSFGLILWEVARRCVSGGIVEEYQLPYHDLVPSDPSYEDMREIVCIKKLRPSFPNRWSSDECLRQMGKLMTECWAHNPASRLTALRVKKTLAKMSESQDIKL
PIP4K2B (human), sequence (P78356 whole entry, looked up): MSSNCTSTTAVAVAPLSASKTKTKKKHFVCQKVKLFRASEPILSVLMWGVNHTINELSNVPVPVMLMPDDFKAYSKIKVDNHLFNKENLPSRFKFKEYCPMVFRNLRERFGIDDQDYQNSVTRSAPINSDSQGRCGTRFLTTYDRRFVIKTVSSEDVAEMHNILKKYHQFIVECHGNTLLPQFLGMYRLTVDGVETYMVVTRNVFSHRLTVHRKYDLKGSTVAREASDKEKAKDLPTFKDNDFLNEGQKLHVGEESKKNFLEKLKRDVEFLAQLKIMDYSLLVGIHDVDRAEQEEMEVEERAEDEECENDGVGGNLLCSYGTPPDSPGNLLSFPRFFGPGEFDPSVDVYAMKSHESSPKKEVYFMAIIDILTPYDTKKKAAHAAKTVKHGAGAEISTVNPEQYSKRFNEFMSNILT

Compound | kinase still bound, per cent of control (BMPR1B (human)) | kinase still bound, per cent of control (MAP2K4 (human)) | kinase still bound, per cent of control (CaMK1 (human)) | kinase still bound, per cent of control (FRK (human)) | kinase still bound, per cent of control (CDK19 (human)) | kinase still bound, per cent of control (RPS6KA2 KD2 (human)) | kinase still bound, per cent of control (PTK6 (human)) | kinase still bound, per cent of control (IKBKB (human)) | kinase still bound, per cent of control (PIP4K2B (human)) | kinase still bound, per cent of control (MARK4 (human)) | kinase still bound, per cent of control (MELK (human)) | kinase still bound, per cent of control (RIPK4 (human)) | kinase still bound, per cent of control (RPS6KA5 KD2 (human)) | kinase still bound, per cent of control (PAK6 (human)) | kinase still bound, per cent of control [1] | kinase still bound, per cent of control (STK32B (human)) | kinase still bound, per cent of control [2] | kinase still bound, per cent of control (LATS2 (human)) | kinase still bound, per cent of control (LIMK2 (human)) | kinase still bound, per cent of control (ROCK2 (human)) | also measured
C=CC(=O)Nc1ccc(CN(C(=O)Nc2c(Cl)c(OC)cc(OC)c2Cl)c2cc(Nc3ccc(N4CCN(C)CC4)cc3)ncn2)cc1 | 100% | 100% | 100% | 0.65% | 100% | 100% | 100% | 100% | 100% | 100% | 100% | 100% | 100% | 100% | 100% | 100% | 20% | 100% | 100% | 100% | kinase still bound, per cent of control (PIK3CG (human)): 100%; kinase still bound, per cent of control (CLK3 (human)): 100%; kinase still bound, per cent of control (BLK (human)): 0.1%; kinase still bound, per cent of control (PKMYT1 (human)): 100%; kinase still bound, per cent of control (ABL1 (human)): 16%; kinase still bound, per cent of control (MST4 (human)): 100%; kinase still bound, per cent of control (PAK3 (human)): 100%; kinase still bound, per cent of control (TAOK3 (human)): 0.9%; kinase still bound, per cent of control (PRKD3 (human)): 100%; kinase still bound, per cent of control (EPHA1 (human)): 100%; kinase still bound, per cent of control (SRPK2 (human)): 100%
CS(=O)(=O)N1CCN(Cc2cc3nc(-c4cccc5[nH]ncc45)nc(N4CCOCC4)c3s2)CC1 | 100% | 100% | 100% | 100% | 100% | 100% | 100% | 100% | 100% | 100% | 100% | 100% | 100% | 100% | 100% | 100% | 100% | 100% | 100% | 100% | kinase still bound, per cent of control (ROCK1 (human)): 100%; kinase still bound, per cent of control (BLK (human)): 100%; kinase still bound, per cent of control (PKMYT1 (human)): 100%; kinase still bound, per cent of control (ABL1 (human)): 100%; kinase still bound, per cent of control (MST4 (human)): 100%; kinase still bound, per cent of control (PAK3 (human)): 100%; kinase still bound, per cent of control (TAOK3 (human)): 100%; kinase still bound, per cent of control (PRKD3 (human)): 100%; kinase still bound, per cent of control (EPHA1 (human)): 100%; kinase still bound, per cent of control (SRPK2 (human)): 100%
COc1cc(N2CCN(C)CC2)ccc1Nc1ncc2c(n1)N(C)c1ccccc1C(=O)N2C | 100% | 100% | 100% | 2.6% | 100% | 15% | 7.6% | 100% | 100% | 100% | 100% | 100% | 100% | 100% | 100% | 100% | 100% | 100% | 100% | 100% | kinase still bound, per cent of control (PIK3CG (human)): 31%; kinase still bound, per cent of control (ROCK1 (human)): 100%; kinase still bound, per cent of control (CLK3 (human)): 100%; kinase still bound, per cent of control (BLK (human)): 100%; kinase still bound, per cent of control (PKMYT1 (human)): 100%; kinase still bound, per cent of control (ABL1 (human)): 100%; kinase still bound, per cent of control (MST4 (human)): 100%; kinase still bound, per cent of control (PAK3 (human)): 100%; kinase still bound, per cent of control (TAOK3 (human)): 2%; kinase still bound, per cent of control (PRKD3 (human)): 5.4%; kinase still bound, per cent of control (EPHA1 (human)): 100%; kinase still bound, per cent of control (SRPK2 (human)): 100%
CCN(CC)CCCCNc1ncc2c(n1)N(C)C(=O)N(c1c(Cl)c(OC)cc(OC)c1Cl)C2 | 100% | 100% | 100% | 100% | 100% | 100% | 100% | 100% | 100% | 100% | 100% | 100% | 100% | 100% | 100% | 100% | 100% | 100% | 100% | 100% | kinase still bound, per cent of control (PIK3CG (human)): 100%; kinase still bound, per cent of control (ROCK1 (human)): 100%; kinase still bound, per cent of control (CLK3 (human)): 100%; kinase still bound, per cent of control (BLK (human)): 100%; kinase still bound, per cent of control (PKMYT1 (human)): 100%; kinase still bound, per cent of control (ABL1 (human)): 100%; kinase still bound, per cent of control (MST4 (human)): 11%; kinase still bound, per cent of control (PAK3 (human)): 100%; kinase still bound, per cent of control (TAOK3 (human)): 0.4%; kinase still bound, per cent of control (PRKD3 (human)): 100%; kinase still bound, per cent of control (EPHA1 (human)): 100%; kinase still bound, per cent of control (SRPK2 (human)): 100%
CNC(=O)c1ccc(Nc2cc(Nc3ccccc3S(=O)(=O)C(C)C)c3cc[nH]c3n2)nc1 | 3.4% | 100% | 100% | 33% | 100% | 100% | 25% | 100% | 3.8% | 4% | 100% | 100% | 100% | 100% | 1.6% | 100% | 10% | 100% | 100% | 0.95% | kinase still bound, per cent of control (PIK3CG (human)): 100%; kinase still bound, per cent of control (CLK3 (human)): 2.8%; kinase still bound, per cent of control (BLK (human)): 0.55%; kinase still bound, per cent of control (PKMYT1 (human)): 100%; kinase still bound, per cent of control (ABL1 (human)): 11%; kinase still bound, per cent of control (MST4 (human)): 19%; kinase still bound, per cent of control (PAK3 (human)): 1%; kinase still bound, per cent of control (TAOK3 (human)): 2%; kinase still bound, per cent of control (PRKD3 (human)): 100%; kinase still bound, per cent of control (EPHA1 (human)): 100%; kinase still bound, per cent of control (SRPK2 (human)): 24%
